From US20020183384A1, “Methods of treating nuclear factor-kappa B mediated diseases and disorders” (priority 2001, published 2002)

Tested on: NF-κB mediated transcription
Assay: NF-κB driven β-lactamase reporter assay in ECV-304 NF-κB.βlaZ cells (AURORA CCF2 fluorescence)
Assay type: cell-based, human
Conditions: 10 μM compound; ECV-304 NF-κB.βlaZ cells stimulated with 10 ng/mL TNF-α or 100 pg/mL IL-1β, 6 hours at 37° C.; inhibition of maximum blue/green ratio
In short: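 ECV-304 cells (clone 1E8) stably carrying a β-lactamase reporter driven by 5 HIV-1 NF-κB sites, plated in M-199 with 2% FBS, compound at 10 μM final. CCF2 read at 395 nm excitation, blue 460 nm/green 530 nm emission ratio; IC50 from dose-response curve.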

For `CCCCCCCCCCN(CCCCCCCCCC)S(=O)(=O)NC(=O)Nc1c(C(C)C)cccc1C(C)C` [Example 75, Urea, N-[2,6-bis (1-methylethyl)phenyl]-N′-[(didecylamino)sulfonyl]-], the “Percent Inhibition at 10 μM” value was under 10%.

Same assay, conditions: Homo sapiens, ECV-304, 6 h, 10 μM compound; ECV-304 NF-κB.βlaZ cells stimulated with 10 ng/mL TNF-α or 100 pg/mL IL-1β, 6 hours at 37° C.; inhibition of maximum blue/green ratio; read-out: Percent Inhibition at 10 μM

Point of comparison: `CC(C)c1cc(C(C)C)c(CC(=O)NS(=O)(=O)Oc2c(C(C)C)cc(OCCCN)cc2C(C)C)c(C(C)C)c1` [Example 208, [2-(2,4,6-Triisopropyl-phenyl)-acetyl]-sulfamic acid 4-(3-amino-propoxy)-2,6-diisopropyl-phenyl ester], inhibition at 10 µM 22.4%. Against it:
- CC(C)c1cc(C(C)C)c(CC(=O)NS(=O)(=O)Oc2c(C(C)C)cc([N+](=O)[O-])cc2C(C)C)c(C(C)C)c1 [Example 182, [(2,4,6-Triisopropyl-phenyl)-acetyl]-sulfamic acid 2,6-diisopropyl-4-nitro-phenyl ester] — higher, 69.8%
- CC(C)c1cc(C(C)C)c(CC(=O)N(C)S(=O)(=O)Oc2c(C(C)C)cccc2C(C)C)c(C(C)C)c1 [Example 181, Methyl-[(2,4,6-triisopropyl-phenyl)-acetyl]-sulfamic acid 2,6-diisopropyl-phenyl ester] — lower, < 10%
- CCCCCCCCCCCCCCS(=O)(=O)N(C)C(=O)Nc1c(C(C)C)cccc1C(C)C [Example 241, N′-[2,6-bis(1-methylethyl)phenyl]-N-methyl-N-(tetradecylsulfonyl)-urea] — lower, < 10%
- COc1cc(OC)c(CC(=O)NS(=O)(=O)Oc2c(C(C)C)cccc2C(C)C)c(OC)c1 [Example 147, [(2,4,6-Trimethoxy-phenyl)-acetyl]-sulfamic acid 2,6-diisopropyl-phenyl ester] — lower, < 10%
- CC(C)c1cccc(C(C)C)c1NC(=O)NS(=O)(=O)N(C(C)C)C(C)(C)C [Example 82, Urea, N-[2,6-bis(1-methylethyl)phenyl]-N′-[[(1,1-dimethylethyl)(1-methylethyl)-amino]sulfonyl]-] — lower, < 10%
- CCCCCCN(CCCCCC)S(=O)(=O)NC(=O)Nc1c(C(C)C)cccc1C(C)C [Example 36, N-[2,6-bis(1-methylethyl)phenyl]-N′-[(dihexylamino)sulfonyl]-urea] — higher, 51.2%
- CC(C)c1cc(C(C)C)c(CC(=O)NS(=O)(=O)Oc2c(C(C)C)cc(C#N)cc2C(C)C)c(C(C)C)c1 [Example 212, [(2,4,6-Triisopropyl-phenyl)-acetyl]-sulfamic acid 4-cyano-2,6-diisopropyl-phenyl ester] — higher, 60.2%
- CC1CCC(C(C)C)C(OC(=O)NS(=O)(=O)Oc2c(C(C)C)cccc2C(C)C)C1 (stereo not shown) [Example 138, Carbamic acid, [[2,6-bis(1-methylethyl)phenoxy]sulfonyl]-, 5-methyl-2-(1-methylethyl)cyclohexyl ester] — higher, 66.2%
- CCCCCCCCCCOS(=O)(=O)NC(=O)Nc1c(C(C)C)cccc1C(C)C [Example 90, Sulfamic acid, [[[2,6-bis(1-methylethyl)phenyl]amino]carbonyl]-, decyl ester] — lower, 13.6%
- CC(C)c1cc(C(C)C)c(CC(=O)NS(=O)(=O)Oc2c(C(C)C)cc(NC(=O)C(C)(C)N)cc2C(C)C)c(C(C)C)c1 [Example 207, [(2,4,6-Triisopropyl-phenyl)-acetyl]-sulfamic acid 4-(2-amino-2-methyl-propionylamino)-2,6-diisopropyl-phenyl ester] — higher, 60.3%
- CC(=O)c1ccc(OS(=O)(=O)NC(=O)Cc2c(C(C)C)cc(C(C)C)cc2C(C)C)c(C(C)C)c1 [Example 191, [(2,4,6-Triisopropyl-phenyl)-acetyl]-sulfamic acid 4-acetyl-2-isopropyl-phenyl ester] — higher, 55.7%
- CC(C)c1cccc(C(C)C)c1OS(=O)(=O)NC(=O)C(c1ccccc1)C1CCCC1 (stereo not shown) [Example 161, (Cyclopentyl-phenyl-acetyl)-sulfamic acid 2,6-diisopropyl-phenyl ester] — higher, 51.5%
- CCCCCCCCC(c1ccccc1)S(=O)(=O)NC(=O)Nc1c(C(C)C)cccc1C(C)C (stereo not shown) [Example 243, N-[2,6-bis(1-methylethyl)phenyl]-N′-(1-phenyl-1-nonylsulfonyl)urea] — lower, < 10%
- CCCCCCNS(=O)(=O)NC(=O)Nc1c(C(C)C)cccc1C(C)C [Example 39, N-[2,6-bis(1-methylethyl)phenyl]-N′-[(hexylamino)sulfonyl]-urea] — lower, < 10%
- C/C(=C\c1ccccc1)C(=O)NS(=O)(=O)Oc1c(C(C)C)cccc1C(C)C [Example 236, ((E)-2-Methyl-3-phenyl-acryloyl)-sulfamic acid 2,6-diisopropyl-phenyl ester] — higher, 79.4%
- CC[C@H](CC[C@@H](C)[C@H]1CC[C@H]2[C@@H]3CCC4C[C@H](OC(=O)NS(=O)(=O)Oc5c(C(C)C)cccc5C(C)C)CC[C@]4(C)[C@H]3CC[C@]12C)C(C)C (stereo partly drawn) [Example 121, Stigmastan-3-ol, [[2,6-bis(1-methylethyl)phenoxy]sulfonyl]-carbamate, (3α)-] — lower, < 10%
- CCCCCCCCCCCCCCS(=O)(=O)NC(=O)Nc1c(C(C)C)cccc1C(C)C [Example 240, N-[2,6-bis(1-methylethyl)phenyl]-N′-(tetradecylsulfonyl)-urea] — lower, 10.3%
- CCOC(=O)CCCCCc1cc(C(C)C)c(OS(=O)(=O)NC(=O)Cc2c(C(C)C)cc(C(C)C)cc2C(C)C)c(C(C)C)c1 [Example 188, 6-(3,5-Diisopropyl-4-{[(2,4,6-triisopropyl-phenyl)-acetyl]sulfamoyloxy}-phenyl)-hexanoic acid ethyl ester] — higher, 50.8%
- CCCCCN(CCCCC)S(=O)(=O)NC(=O)Nc1c(C(C)C)cccc1C(C)C [Example 64, Urea, N-[2,6-bis(1-methylethyl)phenyl]-N′-[(dipentylamino)sulfonyl]-] — higher, 55.4%
- CC(C)c1cccc(C(C)C)c1NS(=O)(=O)NC(=O)N(Cc1ccccc1)Cc1ccccc1 [Example 29, N′-[[[2,6-bis(1-methylethyl)phenyl]amino]sulfonyl]-N,N-bis(phenylmethyl)-urea] — higher, 38.5%

Same assay, conditions: Homo sapiens; 10 μM compound; ECV-304 NF-κB.βlaZ cells stimulated with 10 ng/mL TNF-α or 100 pg/mL IL-1β, 6 hours at 37° C.; inhibition of maximum blue/green ratio; read-out: Percent Inhibition at 10 μM

Point of comparison: `CCCCCCNS(=O)(=O)NC(=O)Oc1c(C(C)(C)C)cc(C)cc1C(C)(C)C` [Example 34, Carbamic acid, [(hexylamino)sulfonyl]-, 2,6-bis(1,1-dimethylethyl)-4-methylphenyl ester], inhibition at 10 µM 24.3%. Against it:
- CC(C)c1cccc(C(C)C)c1OC(=O)NS(=O)(=O)N(C(C)C)C1CCCCC1 [Example 86, Carbamic acid, [[cyclohexyl(1-methylethyl)amino]sulfonyl]-, 2,6-bis(1-methylethyl)phenyl ester] — lower, 16%
- CC(C)c1cccc(C(C)C)c1OC(=O)NS(=O)(=O)N1CCCCC1 [Example 59, Carbamic acid, (1-piperidinylsulfonyl)-, 2,6-bis(1-methylethyl)phenyl ester] — lower, < 10%
- COC(=O)NS(=O)(=O)Oc1c(C(C)C)cccc1C(C)C [Example 56, Carbamic acid, [[2,6-bis(1-methylethyl)phenoxy]sulfonyl]-, methyl ester] — lower, < 10%
- CCCCCCCCCCCCCCCCOS(=O)(=O)NC(=O)Oc1c(C(C)C)cccc1C(C)C [Example 107, Carbamic acid, [(hexadecyloxy)sulfonyl]-, 2,6-bis(1-methylethyl)phenyl ester] — lower, < 10%
- CCCCCCOS(=O)(=O)NC(=O)Oc1c(C(C)(C)C)cc(C)cc1C(C)(C)C [Example 49, Carbamic acid, [(hexyloxy)sulfonyl]-, 2,6-bis(1,1-dimethylethyl)-4-methylphenyl ester] — lower, 22.9%
